Results from US11713335B2, “Aminocoumarin compounds and methods of their use” (President and Fellows of Harvard College, priority 2018, dated 2023).
In brackets after ≈: the same amount, converted by molar mass. Read-outs that look alike come from different tables or passages of the source.

Legend:
S. aureus MW2 = test: Minimal inhibitory concentration, S. aureus MW2; type: cell-based; settings: read-out: MIC (μM) S. aureus MW2 (MRSA)
How it was run: (§1)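 Growth at 600 nm after 16 h at 37 °C without shaking defines the MIC, taken as the lowest compound concentration that prevents growth and expressed in µM. Cultures grown to saturation in LB, or TSA for S. aureus, were diluted 1:100 twice before twofold serial compound dilution.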

K. pneumoniae 700721 = test: Minimal inhibitory concentration, K. pneumoniae 700721; type: cell-based; settings: 16 hour minimal inhibitory concentration at 37° C., read-out: MIC (μM) K. pneumoniae 700721
How it was run: as §1

E. coli 25922 = test: Minimal inhibitory concentration, E. coli 25922; type: cell-based; settings: 16 hour minimal inhibitory concentration at 37° C., read-out: MIC (μM) E. coli 25922
How it was run: as §1

E. coli MC4100 = test: Minimal inhibitory concentration, E. coli MC4100; type: cell-based; settings: 16 hour minimal inhibitory concentration at 37° C., read-out: MIC (μM) E. coli MC4100 ara+
How it was run: as §1

S. aureus RN4220 = test: Minimal inhibitory concentration, S. aureus RN4220; type: cell-based; settings: 16 hour minimal inhibitory concentration at 37° C., read-out: MIC (μM) S. aureus RN4220
How it was run: as §1

E. cloacae 13047 = test: Minimal inhibitory concentration, E. cloacae 13047; type: cell-based; settings: 16 hour minimal inhibitory concentration at 37° C., read-out: MIC (μM) E. cloacae 13047
How it was run: as §1

WT E. coli = test: Minimal inhibitory concentration in wild-type E. coli; type: cell-based, Escherichia coli; settings: read-out: MIC (μM) in WT E. coli
Description: General Procedure for Determination of Minimal Inhibitory Concentrations
Overnight cultures (5 mL) of bacterial strains were grown in LB media or TSA media (for S. aureus) at 37° C. and with shaking at 220 rpm until saturation. The overnight culture was diluted serially 1:100 (50 μL in 5 mL sterile media) and then 1:100 (250 μL in 25 mL sterile media). The 25 mL of diluted culture was then dispensed to a sterile 96 well plate (Corning #3370). 198 μL of culture were dispensed into row A and 100 μL of this culture were dispensed into rows B-H. Aminocoumarin compound (DMSO stock) were added to the first row and then the row was mixed by pipetting. 100 μL of culture from row A were transferred to row B and the serial dilution continued until the final 100 μL from row H were discarded. The plate was incubated without shaking in a 37° C. for 16 hours and then read by visible light spectrophotometer (Molecular Devices) at 600 nm. The minimal inhibitory concentration (MIC) was determined as the lowest concentration of compound concentration that inhibited the growth of bacteria.

A. baumannii 19606 = test: Minimal inhibitory concentration, A. baumannii 19606; type: cell-based; settings: 16 hour minimal inhibitory concentration at 37° C., read-out: MIC (μM) A. baumannii 19606
How it was run: as §1

[1] = Staphylococcus aureus, MRSA, 16 h, 16 hour minimal inhibitory concentration at 37° C.
[2] = Staphylococcus aureus, RN4220, 16 h
[3] = Escherichia coli, wild-type E. coli, 37° C., 16 hours
[4] = Acinetobacter baumannii, 19606, 16 h
[5] = 16 hour minimal inhibitory concentration at 37° C.
[6] = wild-type E. coli, 37° C., 16 hours

| SMILES | MIC (S. aureus MW2; [1]) [µM] | MIC (K. pneumoniae 700721; Klebsiella pneumoniae, 700721) [µM] | MIC (E. coli 25922; Escherichia coli, 25922, 16 h) [µM] | MIC (E. coli MC4100; Escherichia coli, MC4100, 16 h) [µM] | MIC (S. aureus RN4220; [2]) [µM] | MIC (E. cloacae 13047; Enterobacter cloacae, 13047) [µM] | MIC (WT E. coli; [3]) [µM] | MIC (A. baumannii 19606; [4]) [µM] | MIC (S. aureus MW2; [5]) [µM] | MIC (K. pneumoniae 700721) [µM] | MIC (E. coli 25922) [µM] | MIC (E. coli MC4100) [µM] | MIC (S. aureus RN4220) [µM] | MIC (E. cloacae 13047) [µM] | MIC (WT E. coli; [6]) [µM] | MIC (A. baumannii 19606) [µM] | further results |
| --- | --- | --- | --- | --- | --- | --- | --- | --- | --- | --- | --- | --- | --- | --- | --- | --- | --- |
| CO[C@@H]1[C@@H](OC(N)=O)[C@@H](O)[C@H](Oc2ccc3c(O)c(NC(=O)c4cccc(Oc5ccccc5)c4)c(=O)oc3c2C)OC1(C)C [Compound 35] | 20 (≈ 12.4 µg/mL) | > 100 | 10 (≈ 6.21 µg/mL) | 8 (≈ 4.96 µg/mL) | 40 (≈ 24.8 µg/mL) | > 100 | 8 (≈ 4.96 µg/mL) | > 50 | – | – | – | – | – | – | – | – | – |
| CO[C@@H]1[C@@H](OC(N)=O)[C@@H](O)[C@H](Oc2ccc3c(O)c(NC(=O)c4ccc(O)c(C/C=C/C(C)=O)c4)c(=O)oc3c2C)OC1(C)C [Compound 81] | – | > 100 | – | – | 40 (≈ 25.1 µg/mL) | > 100 | – | – | – | – | – | – | – | – | – | – | MIC (S. aureus MW2; Staphylococcus aureus, MRSA, 16 h): 40 µM (≈ 25.1 µg/mL); MIC (E. coli 25922; Escherichia coli, 25922): > 200 µM; MIC (E. coli MC4100; Escherichia coli, MC4100): > 200 µM; MIC (WT E. coli; Escherichia coli, 16 h): > 300 µM; MIC (A. baumannii 19606; Acinetobacter baumannii, 19606): > 50 µM |
| CO[C@@H]1[C@@H](OC(N)=O)[C@@H](O)[C@H](Oc2ccc3c(O)c(NC(=O)c4ccc5c(ccn5C)c4)c(=O)oc3c2C)OC1(C)C [Compound 72] | – | – | – | – | – | – | – | – | 43 (≈ 25 µg/mL) | >100 | >200 | >200 | 86 (≈ 50 µg/mL) | >100 | >300 | >50 | – |
| CO[C@@H]1[C@@H](OC(N)=O)[C@@H](O)[C@H](Oc2ccc3c(O)c(NC(=O)c4c[nH]c5ccccc45)c(=O)oc3c2C)OC1(C)C [Compound 17] | 22 (≈ 12.5 µg/mL) | > 100 | > 200 | > 200 | 44 (≈ 25 µg/mL) | > 100 | > 300 | > 50 | – | – | – | – | – | – | – | – | – |
| CO[C@@H]1[C@@H](OC(N)=O)[C@@H](O)[C@H](Oc2ccc3c(O)c(NC(=O)c4cccc(-c5ccc(Cl)cc5)c4)c(=O)oc3c2C)OC1(C)C [Compound 33] | 0.98 (≈ 0.626 µg/mL) | > 100 | 20 (≈ 12.8 µg/mL) | 18 (≈ 11.5 µg/mL) | 1.96 (≈ 1.25 µg/mL) | > 100 | 18 (≈ 11.5 µg/mL) | 39 (≈ 24.9 µg/mL) | – | – | – | – | – | – | – | – | – |
| CO[C@@H]1[C@@H](OC(N)=O)[C@@H](O)[C@H](Oc2ccc3c(O)c(NC(=O)c4cccc(-c5ccc(O)c(O)c5)c4)c(=O)oc3c2C)OC1(C)C [Compound 94] | – | – | – | – | – | – | – | – | 20 (≈ 12.7 µg/mL) | >100 | >200 | >200 | 20 (≈ 12.7 µg/mL) | >100 | >300 | >50 | – |
| COc1cccc(-c2cccc(C(=O)Nc3c(O)c4ccc(O[C@@H]5OC(C)(C)[C@H](OC)[C@@H](OC(N)=O)[C@H]5O)c(C)c4oc3=O)c2)c1 [Compound 45] | – | > 100 | – | – | – | > 100 | 89 (≈ 56.5 µg/mL) | – | 3 (≈ 1.9 µg/mL) | – | 79 (≈ 50.1 µg/mL) | 89 (≈ 56.5 µg/mL) | 5 (≈ 3.17 µg/mL) | – | – | >50 | – |
| CO[C@@H]1[C@@H](OC(N)=O)[C@@H](O)[C@H](Oc2ccc3c(O)c(NC(=O)Nc4cccc(-c5ccccc5)c4)c(=O)oc3c2C)OC1(C)C [Compound 3] | 81 (≈ 50.2 µg/mL) | > 100 | > 200 | > 200 | 81 (≈ 50.2 µg/mL) | > 100 | > 300 | > 50 | – | – | – | – | – | – | – | – | – |
| CO[C@@H]1[C@@H](OC(N)=O)[C@@H](O)[C@H](Oc2ccc3c(O)c(NC(=O)c4cccc(-c5cccc(C(F)(F)F)c5)c4)c(=O)oc3c2C)OC1(C)C [Compound 56] | – | – | – | – | – | – | – | – | 0.46 (≈ 0.309 µg/mL) | >100 | >200 | >200 | 0.74 (≈ 0.498 µg/mL) | >100 | >300 | 37 (≈ 24.9 µg/mL) | – |
| CO[C@@H]1[C@@H](OC(N)=O)[C@@H](O)[C@H](Oc2ccc3c(O)c(NC(=O)c4cccc(-c5ccccc5)c4O)c(=O)oc3c2C)OC1(C)C [Compound 88] | – | – | – | – | – | – | – | – | 81 (≈ 50.3 µg/mL) | >100 | 161 (≈ 99.9 µg/mL) | 89 (≈ 55.2 µg/mL) | >100 | >100 | 89 (≈ 55.2 µg/mL) | >50 | – |
